Target: T1, GST-GlcNAc 2-epimerase-5D (Synechocystis sp. PCC 6803, UniProt P74124)
T1 construct: gene slr1975; 1209 bp PCR fragment
T1 sequence (P74124 1-391): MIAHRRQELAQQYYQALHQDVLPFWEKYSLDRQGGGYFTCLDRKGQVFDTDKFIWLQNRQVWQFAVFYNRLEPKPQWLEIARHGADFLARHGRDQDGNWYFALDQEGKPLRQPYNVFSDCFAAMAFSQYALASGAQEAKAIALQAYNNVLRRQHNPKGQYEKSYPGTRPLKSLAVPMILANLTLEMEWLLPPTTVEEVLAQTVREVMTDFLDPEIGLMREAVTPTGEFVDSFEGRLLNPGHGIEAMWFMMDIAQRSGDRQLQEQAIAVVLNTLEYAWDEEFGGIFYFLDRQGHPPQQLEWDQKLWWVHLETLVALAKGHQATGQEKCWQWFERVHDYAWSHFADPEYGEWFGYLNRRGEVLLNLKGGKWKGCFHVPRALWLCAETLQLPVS
Assay: enzyme inhibition kinetics
Type: biochemical
Conditions: read-out: inhibition constant

Ki: 31 mM
SMILES: CC(=O)C(=O)O [pyruvate]

Reference: article PMC2722590, “Production of N-acetyl-D-neuraminic acid using two sequential enzymes overexpressed as double-tagged fusion proteins” (BMC Biotechnology, 2009)
